Reference: patent US8236792B2, “Substituted pyrrolidine amides as modulators of the histamine H3 receptor” (Janssen Pharmaceutica NV, priority 2008, dated 2012)
Where two headings read alike, the source gives them in different places.

What was measured:
human H3 receptor [1] = biological target: T1, human H3 receptor (Homo sapiens, UniProt Q9Y5N1); assay: H3 Receptor Binding (Human) Method 2, [125I]-iodoproxyfan competitive radioligand binding; set-up: expressed in transfected cells
human H3 receptor [2] = biological target: T1, human H3 receptor; assay: Cyclic AMP Accumulation (human H3 reporter subline); assay type: cell-based; set-up: expressed in transfected cells; host or cells: SK-N-MC sublines with a reporter construct; details: SK-N-MC subline with reporter construct and human H3 receptor; free base or trifluoroacetate salt; average; read-out: Human pA2 (converted)
Protocol: (§1) Sublines of SK-N-MC cells were created that expressed a reporter construct and either the human or rat H3 receptor. […] Compounds were tested in their free base or trifluoroacetate salt forms.

rat H3 receptor = biological target: T2, rat H3 receptor (Rattus norvegicus, UniProt Q9QYN8); assay: Cyclic AMP Accumulation (rat H3 reporter subline); assay type: cell-based; details: SK-N-MC subline with reporter construct and rat H3 receptor; free base or trifluoroacetate salt; average; read-out: Rat pA2 (converted)
T2 construct: expressed in transfected cells; host or cells: SK-N-MC sublines with a reporter construct
T2 sequence (Q9QYN8 whole entry): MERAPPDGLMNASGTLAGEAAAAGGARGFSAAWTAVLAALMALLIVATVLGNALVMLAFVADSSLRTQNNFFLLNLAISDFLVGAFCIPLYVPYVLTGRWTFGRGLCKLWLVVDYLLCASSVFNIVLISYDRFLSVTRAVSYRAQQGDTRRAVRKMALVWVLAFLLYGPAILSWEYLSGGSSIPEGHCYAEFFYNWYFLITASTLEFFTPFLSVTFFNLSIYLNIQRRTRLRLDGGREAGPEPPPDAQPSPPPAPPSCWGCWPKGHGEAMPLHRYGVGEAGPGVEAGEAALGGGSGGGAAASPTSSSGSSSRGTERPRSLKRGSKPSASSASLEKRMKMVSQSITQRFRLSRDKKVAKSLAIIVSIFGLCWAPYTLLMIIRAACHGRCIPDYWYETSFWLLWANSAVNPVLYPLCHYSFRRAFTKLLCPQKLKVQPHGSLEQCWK
Protocol: as §1

cloned rat H3 receptors = biological target: T3, cloned rat H3 receptors (Rattus norvegicus, UniProt Q9QYN8); assay: H3 Receptor Binding (Rat)
T3 construct: expressed in transfected cells
T3 sequence (Q9QYN8 whole entry): as above
Protocol: Compounds were tested for binding to cloned rat H3 receptors, stably expressed in SK-N-MC cells.
Compounds were tested in their free base or hydrochloride salt forms.

[3] = biological target: T4, cloned human H3 receptors (Homo sapiens, UniProt Q9Y5N1); assay: H3 Receptor Binding (Human) Method 1; details: receptor stably expressed in SK-N-MC cells, free base forms, average of results
T4 construct: expressed in transfected cells
T4 sequence (Q9Y5N1 whole entry): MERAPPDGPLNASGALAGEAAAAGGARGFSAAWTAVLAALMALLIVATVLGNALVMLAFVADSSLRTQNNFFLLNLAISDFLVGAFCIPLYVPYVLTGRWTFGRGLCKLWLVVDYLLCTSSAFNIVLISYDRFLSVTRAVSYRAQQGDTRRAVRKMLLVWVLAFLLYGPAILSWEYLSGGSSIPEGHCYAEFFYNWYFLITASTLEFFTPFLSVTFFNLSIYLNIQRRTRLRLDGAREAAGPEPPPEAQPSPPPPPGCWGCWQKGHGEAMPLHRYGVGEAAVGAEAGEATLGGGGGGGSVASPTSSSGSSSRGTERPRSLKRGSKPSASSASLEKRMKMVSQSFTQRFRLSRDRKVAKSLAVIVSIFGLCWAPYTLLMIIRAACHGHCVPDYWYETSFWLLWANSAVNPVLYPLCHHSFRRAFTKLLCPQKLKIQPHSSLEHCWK

T1 sequence (Q9Y5N1 whole entry): as above

SMILES	Ki (human H3 receptor [1])	Kb (human H3 receptor [2])	Kb (rat H3 receptor)	Ki (cloned rat H3 receptors)	Ki (cloned rat H3 receptors; receptor stably expressed in SK-N-MC cells, free base or hydrochloride salt, average of results, read-out: Rat H3 Ki)	Ki [3]
CSc1ccc(O[C@@H]2CN[C@@H](C(=O)N3CCCN(C4CCC4)CC3)C2)cc1 [Example 71, (2R,4S)-4-(4-Methylsulfanyl-Phenoxy)-2-(4-cyclobutyl-[1,4]diazepane-1-carbonyl)-pyrrolidine]	3 nM	2.04 nM	10.7 nM	54 nM	–	–
Cc1cc(O[C@@H]2CN[C@@H](C(=O)N3CCCN(C4CCC4)CC3)C2)ccc1Cl [Example 72, (2R,4S)-4-(4-Chloro-3-methyl-phenoxy)-2-(4-cyclobutyl-[1,4]diazepane-1-carbonyl)-pyrrolidine]	3 nM	1.02 nM	4.9 nM	–	36 nM	–
CSc1ccc(O[C@H]2CN[C@H](C(=O)N3CCCN(C4CCC4)CC3)C2)cc1 [Example 96, (2S,4R)-2-(4-Cyclobutyl-[1,4]diazepane-1-carbonyl)-4-(4-methylsulfanyl-phenoxy)-pyrrolidine]	–	20.9 nM	112 nM	84 nM	–	11 nM
